From patent US9814732B2, “Ulipristal acetate for prevention and treatment of breast tumors” (LABORATOIRE HRA-PHARMA, priority 2012, dated 2017)

Experiments:
[1] = test system: PR target genes (FASN, cyclin A, BCL2, ALPL); experiment: qRT-PCR mRNA expression of PR target genes in HBE cells; format: cell-based, human; settings: P and/or UPA 100 nM, E2 10 nM
Protocol: (§1) After seeding, cells were cultured for 24 h in serum and phenol red free medium. Then treatments were carried out in a phenol red free medium containing 5% dextran-charcoal stripped serum. Cells were treated with P or DEX (100 nM), alone or in combination with UPA, RU (1 nM to 1 μM) or CDB-3877 (100 nM). Control cells were treated with ethanol, at […] 1:1000 final ethanol concentration alone as vehicle or E2 (10 nM).
(§2) Total RNA was extracted using TriZOL Reagent (Invitrogen, Cergy-Pontoise, France).
(§3) 2 μg of total RNA was subjected to reverse transcription (RT) using random primers for 1 h at 37° C. 2 μl of RT product was diluted (1:10) and subjected to quantitative PCR using sequence specific primers (300 nM) and Brillant SYBR GREEN QPCR master mix (Fermentas, Saint-Rémy-lès-Chevreuse, France) on an Mx3000P apparatus (Agilent Technologies, Massy, France). Conditions were 1 cycle at 95° C. for 10 min followed by 40 cycles at 95° C. for 30 sec, 60° C. for 1 min and 72° C. for 30 sec. Gene expression values were normalized to the housekeeping gene 36B4. Time of steroid treatment was chosen to get the optimal stimulation for a given gene. ALPL and G0S8 mRNA were analyzed after 6 h of treatment. IEX-1, FASN, and BCL2 were analyzed after 24 h of treatment. Cyclin A mRNA was analyzed after 24 h for GR responses or 48 h for PR responses.

[2] = Hormone concentrations in serum of pellet-treated athymic mice; format: in vivo; settings: female, NMRI nu/nu athymic, mouse, other: steroid pellets grafted onto the neck, 20 mg pellet (P from day 14, UPA from day 1), day 28, read-out: concentration in mice serum (mean±SEM)
Protocol: Four weeks old ovariectomized female NMRInu/nu 20 athymic mice were purchased from Janvier laboratory (Le Genest Saint Isle, France). Breast tissues samples were obtained from 6 women (aged 29-42 years). Human mammary gland tissue was cut into 2×2×2 mm fragments and 4 fragments were then subcutaneously xenografted onto the back of 4 mice per group. Four treatment groups were performed: control, E2, E2+P and E2+P+UPA. Treatments were administered by grafting steroid pellets onto the neck of each mouse. The experimental conditions were initially determined by using a dose range of hormones mixed with cholesterol into the pellets. Blood sample assays were performed after 2 weeks and 4 weeks of treatment to measure plasmatic hormonal concentrations. Finally, the dose of 0.3 mg for E2 and 20 mg for P and UPA were used, as it provides the expected blood concentrations. For the control groups, pellets containing only cholesterol were used. To reproduce menstrual cycle conditions, mice were grafted on the first day of experiment with cholesterol, E2 and/or UPA containing pellets and on the fourteen day with cholesterol or progesterone containing pellets in control and E2 groups, or in E+P and E2+P+UPA groups, respectively. Twenty eight days after the start of experiment, mice were sacrificed. Blood was collected for each mouse, and serum was frozen at −20° C. until hormone concentrations
Estradiol was measured by radioimmunoassay using Clinical Assays Estradiol-2 (Sorin Biomedica Diagnostics SpA, Saluggia, Italia). Progesterone levels were evaluated by UPLC-MSMS using Acquity UPLC and Quattro Premier XE (Waters, Milford Mass., USA).
UPA concentrations were measured using LC-MS/MS technique by MPI Research (State College, Pa., USA).

T-47D cells [3] = experiment: Tritiated thymidine incorporation (proliferation) in T-47D cells; format: cell-based, human; settings: 48 h, 100 nM
Protocol: as §1
(§4) After 24 h of hormonal treatment, cells were incubated with [methyl-1 3H] thymidine (Perkin Elmer, Courtaboeuf, France) for 48 h or 20 h for KBE or cancer cells, respectively at 37° C. After incubation cells were washed twice with PBS 1× and once with 5% trichloroacetic acid (TCA). Cells were incubated in 5% TCA for 15 min at 4° C. and lysed in NaOH 0.1 N for 30 min at 37° C. The total cell lysate was added to 5 ml of Ecolite scintillation liquid (MP biomedical, Illkirch, France) and radioactivity was counted with a β-counter HIDEX 300SL (ScienceTec, Courtaboeuf, France).

PR = target: T1, PR (Homo sapiens, UniProt P06401); experiment: MMTV-Luc reporter gene transactivation in HBE cells (MMTV-Luc alone); format: cell-based; settings: P 100 nM, p<0.05
T1 sequence (P06401 1-933): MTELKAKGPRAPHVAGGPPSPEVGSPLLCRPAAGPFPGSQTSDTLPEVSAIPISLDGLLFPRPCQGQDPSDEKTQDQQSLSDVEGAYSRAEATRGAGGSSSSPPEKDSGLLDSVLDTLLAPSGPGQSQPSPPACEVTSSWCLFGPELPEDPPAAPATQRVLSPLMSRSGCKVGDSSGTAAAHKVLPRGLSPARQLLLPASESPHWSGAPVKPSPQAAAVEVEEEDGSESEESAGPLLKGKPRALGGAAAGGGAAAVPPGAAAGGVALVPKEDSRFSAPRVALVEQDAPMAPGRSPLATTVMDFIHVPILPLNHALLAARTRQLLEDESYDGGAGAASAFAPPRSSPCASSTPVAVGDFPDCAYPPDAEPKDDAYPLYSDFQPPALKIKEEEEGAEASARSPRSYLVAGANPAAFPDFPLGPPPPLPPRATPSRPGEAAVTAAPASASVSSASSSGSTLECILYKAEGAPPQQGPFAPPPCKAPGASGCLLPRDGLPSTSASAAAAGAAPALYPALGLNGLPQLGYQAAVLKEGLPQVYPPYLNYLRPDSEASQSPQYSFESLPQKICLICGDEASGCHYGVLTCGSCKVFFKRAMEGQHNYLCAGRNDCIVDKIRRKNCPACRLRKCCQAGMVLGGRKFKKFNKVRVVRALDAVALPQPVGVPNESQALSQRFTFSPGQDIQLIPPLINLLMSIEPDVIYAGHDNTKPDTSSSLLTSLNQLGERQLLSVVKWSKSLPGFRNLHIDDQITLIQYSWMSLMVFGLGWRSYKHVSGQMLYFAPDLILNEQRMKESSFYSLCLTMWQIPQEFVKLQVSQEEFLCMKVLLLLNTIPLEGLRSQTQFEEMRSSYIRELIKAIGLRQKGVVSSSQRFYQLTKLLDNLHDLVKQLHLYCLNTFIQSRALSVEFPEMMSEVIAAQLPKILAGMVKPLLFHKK
Protocol: T-47D and MCF-7 cell lines were respectively maintained in RPMI 1640 and in DMEM medium supplemented with 10% fetal calf serum (PAA Laboratory, Les Mureaux, France). […] Normal human breast epithelial cell (HBE) primary cultures were obtained from 20 women (aged 17-50 years). […] HBE cells were maintained in HAM F10 medium (PAA Laboratory, Les Mureaux, France) containing hydrocortisone (5 ng/ml), Triiodo-L-thyronine (6.5 ng/ml), choleratoxin (10 ng/ml), transferrin (5 mg/ml), insulin (0.016 U/ml), epidermal growth factor (10 ng/ml) (Sigma, St Quentin Fallavier, France) and 5% human serum (Etablissement Français du Sang). […]
Cells were transfected with reporter gene plasmids containing glucocorticoid and progesterone responsive elements (GRE/PRE): 1) the MMTV-Luc is a Mouse Mammary Tumor Virus Long Terminal Repeat promoter containing one GRE/PRE palindrome and three GRE/PRE hemi-palindromes upstream to firefly luciferase gene in pFC31 vector, 2) the GRELuc contains six copies of GRE/PRE palindrome upstream to firefly luciferase gene in pBL vector. […] At the end of the experiment, cells were lysed and luciferase activity was determined using the Luciferase Assay System (Promega, Charbonnières-les-bains, France). Beta galactosidase activity was assessed using the Galacto Star kit (Applied Biosystems, Courtaboeuf, France) to normalize luciferase activity data.

T-47D cells [4] = experiment: Apoptosis, sub-G1 quantification by flow cytometry in T-47D cells; format: cell-based, human; settings: 48 h, 100 nM
Protocol: as §1
(§5) After 96 h or 48 h of hormonal treatment, respectively, for HBE or MCF-7 and T-47D cells, cells were washed in PBS, matrix dissociated with accutase enzyme (PAA laboratory, Les Mureaux, France), and centrifuged 5 minutes at 1350 rpm. Cells were fixed and frozen at −20° C. in 70% ethanol. Before analysis, cells were washed in PBS and stained with 10 μg/ml propidium iodide in PBS (containing 0.835 U/ml RNase A) (Sigma, St Quentin Fallavier, France). For each sample at least 10 000 cells were counted in a BD LSR II flow cytometer (BD Biosciences, Le Pont de Claix, France). After gating out doublets and debris, cycle distribution was analyzed using the ModFit LT software (Verity Software House, USA).

[5] = test system: PR target genes (FASN, cyclin A, BCL2, ALPL); experiment: qRT-PCR mRNA expression of PR target genes in T-47D cells; format: cell-based, human; settings: P and/or UPA 100 nM
Protocol: as §1, §2, §3

HBE cells [6] = experiment: Apoptosis, sub-G1 quantification by flow cytometry in HBE cells; format: cell-based, human; settings: 96 h, 100 nM
Protocol: as §1, §5

HBE cells [7] = experiment: Tritiated thymidine incorporation (proliferation) in HBE cells; format: cell-based, human; settings: 96 h, 100 nM
Protocol: as §1, §4

CC(=O)[C@H]1CC[C@H]2[C@@H]3CCC4=CC(=O)CC[C@]4(C)[C@H]3CC[C@]12C [P, progesterone]
BCL2 mRNA expression (PR response) ([1]; 24 h): decrease of BCL2 mRNA expression by P
FASN mRNA expression ([1]; 24 h): induction of FASN mRNA expression
cyclin A mRNA expression (PR response) ([1]; 48 h): down regulated cyclin A mRNA expression
concentration at 28 days [2]: 13.1 ± 1.14 ng/mL
cell proliferation ([3H] thymidine incorporation), compound alone (T-47D cells [3]): anti-proliferative activity
luciferase expression (MMTV-Luc) (PR): 1.38±0.11 control fold induction
cell apoptosis (sub-G1 percentage), compound alone (T-47D cells [4]): increased the percentage of sub-G1 cells
ALPL mRNA expression ([5]; 6 h): strong P mediated induction of ALPL transcript
FASN mRNA expression ([5]; 24 h): induction of FASN mRNA expression
BCL2 mRNA expression (PR response) ([5]; 24 h, p<0.01): decrease of BCL2 mRNA expression by P
cyclin A mRNA expression (PR response) ([5]; 48 h): down regulated cyclin A mRNA expression
cell apoptosis (sub-G1 percentage), compound alone (HBE cells [6]): intense pro-apoptotic effect
cell proliferation ([3H] thymidine incorporation), compound alone (HBE cells [7]): anti-proliferative effect
